Laboratory results reported in patent publication US9049864B2, “Pyridazinone herbicidal compounds” (Syngenta Limited, priority 2012, dated 2015).

Legend:
Test in all cases: Post-emergence herbicidal glasshouse test, percentage damage to the plant
Type in all cases: in vivo
Conditions in all cases: post-emergence, 1000 g/ha, evaluated after 13 days
[1] = test system: Solanum nigrum (SOLNI)
Description: (§1) Seeds of a variety of test species are sown in standard soil in pots:—Solanum nigrum (SOLNI), Amaranthus retoflexus (AMARE), Setaria faberi (SETFA), Alopecurus myosuroides (ALOMY), Echinochloa crus-galli (ECHCG), Ipomoea hederacea (IPOHE). After 8 days cultivation (post-emergence) under controlled conditions in a glasshouse (at 24/16° C., day/night; 14 hours light; 65% humidity), the plants are sprayed with an aqueous spray solution derived from the formulation of the technical active ingredient in acetone/water (50:50) solution containing 0.5% Tween 20 (polyoxyethelyene sorbitan monolaurate, CAS RN 9005-64-5). Compounds are applied at 1000 g/ha. The test plants are then grown in a glasshouse under controlled conditions in a glasshouse (at 24/16° C., day/night; 14 hours light; 65% humidity) and watered twice daily. After 13 days, the test is evaluated for the percentage damage caused to the plant. The biological activities are shown in the following table on a five point scale (5=80-100%; 4=60-79%; 3=40-59%; 2=20-39%; 1=0-19%). A comparative experiment is conducted to compare the biological efficacy of a compound of the present invention with those of WO 2011/045271. The test is performed as outlined above using the following compounds. Three different application rates are employed (250 g/ha, 500 g/ha and 1000 g/ha).

[2] = test system: Echinochloa crus-galli (ECHCG)
Description: as §1

[3] = test system: Amaranthus retoflexus (AMARE)
Description: as §1

[4] = test system: Setaria faberi (SETFA)
Description: as §1

[5] = test system: Ipomoea hederacea (IPOHE)
Description: as §1

[6] = test system: Alopecurus myosuroides (ALOMY)
Description: as §1

Row | Structure (SMILES) | POST Application SOLNI, percentage damage (five point scale) [1] | POST Application ECHCG, percentage damage (five point scale) [2] | POST Application AMARE, percentage damage (five point scale) [3] | POST Application SETFA, percentage damage (five point scale) [4] | POST Application IPOHE, percentage damage (five point scale) [5] | POST Application ALOMY, percentage damage (five point scale) [6]
1 | CC1=NN(C)C(=O)C(n2c(Br)c(Br)c3cc(Br)ccc32)C1=O (stereo not drawn) [Compound 1.022] | 5 (5=80-100%) | 2 (2=20-39%) | 3 (3=40-59%) | 1 (1=0-19%) | 5 (5=80-100%) | 1 (1=0-19%)
2 | CC1=NN(C)C(=O)C(n2c(Br)c(Br)c3ccc(Br)cc32)C1=O (stereo not drawn) [Compound 1.023] | 5 (5=80-100%) | 3 (3=40-59%) | 5 (5=80-100%) | 1 (1=0-19%) | 5 (5=80-100%) | 2 (2=20-39%)
3 | CC1=NN(C)C(=O)C(n2c(Br)c(Br)c3ccccc32)C1=O (stereo not drawn) [Compound 1.024] | 5 (5=80-100%) | 2 (2=20-39%) | 5 (5=80-100%) | 2 (2=20-39%) | 5 (5=80-100%) | 1 (1=0-19%)
4 | CC1=NN(C)C(=O)C(n2cc(Br)c3ccccc32)C1=O (stereo not drawn) [Compound 1.025] | 5 (5=80-100%) | 1 (1=0-19%) | 4 (4=60-79%) | 1 (1=0-19%) | 3 (3=40-59%) | 1 (1=0-19%)
5 | CC1=NN(C)C(=O)C(n2c(Br)c(Cl)c3ccccc32)C1=O (stereo not drawn) [Compound 1.026] | 5 (5=80-100%) | 4 (4=60-79%) | 5 (5=80-100%) | 3 (3=40-59%) | 5 (5=80-100%) | 2 (2=20-39%)
6 | CC1=NN(C)C(=O)C(n2cc(Cl)c3ccccc32)C1=O (stereo not drawn) [Compound 1.027] | 5 (5=80-100%) | 3 (3=40-59%) | 4 (4=60-79%) | 1 (1=0-19%) | 4 (4=60-79%) | 1 (1=0-19%)
7 | CN1N=C(C#N)C(=O)C(n2c(Cl)c(Cl)c3ccccc32)C1=O (stereo not drawn) [Compound 2.001] | 5 (5=80-100%) | 2 (2=20-39%) | 3 (3=40-59%) | 2 (2=20-39%) | 5 (5=80-100%) | 1 (1=0-19%)
8 | CN1N=C(C(F)F)C(=O)C(n2c(Cl)c(Cl)c3ccccc32)C1=O (stereo not drawn) [Compound 2.002] | 5 (5=80-100%) | 1 (1=0-19%) | 5 (5=80-100%) | 1 (1=0-19%) | 5 (5=80-100%) | 1 (1=0-19%)
9 | CSC1=NN(C)C(=O)C(n2c(Cl)c(Cl)c3ccccc32)C1=O (stereo not drawn) [Compound 2.003, 4-(2,3-dichloroindol-1-yl)-2-methyl-6-methylsulfanyl-pyridazine-3,5-dione] | 2 (2=20-39%) | 1 (1=0-19%) | 2 (2=20-39%) | 1 (1=0-19%) | 4 (4=60-79%) | 1 (1=0-19%)
10 | CN1N=C(S(C)(=O)=O)C(=O)C(n2c(Cl)c(Cl)c3ccccc32)C1=O (stereo not drawn) [Compound 2.004] | 2 (2=20-39%) | 1 (1=0-19%) | 2 (2=20-39%) | 1 (1=0-19%) | 2 (2=20-39%) | 1 (1=0-19%)
11 | CN1N=C([S+](C)[O-])C(=O)C(n2c(Cl)c(Cl)c3ccccc32)C1=O (stereo not drawn) [Compound 2.005] | 5 (5=80-100%) | 1 (1=0-19%) | 2 (2=20-39%) | 1 (1=0-19%) | 5 (5=80-100%) | 1 (1=0-19%)
12 | CC[S+]([O-])C1=NN(C)C(=O)C(n2c(Cl)c(Cl)c3ccccc32)C1=O (stereo not drawn) [Compound 2.006] | 4 (4=60-79%) | 1 (1=0-19%) | 1 (1=0-19%) | 1 (1=0-19%) | 4 (4=60-79%) | 1 (1=0-19%)
13 | COCC1=NN(C)C(=O)C(n2c(Cl)c(Cl)c3ccccc32)C1=O (stereo not drawn) [Compound 2.008] | 5 (5=80-100%) | 1 (1=0-19%) | 3 (3=40-59%) | 1 (1=0-19%) | 5 (5=80-100%) | 1 (1=0-19%)
14 | CC(C)CC1=NN(C)C(=O)C(n2c(Cl)c(Cl)c3ccccc32)C1=O (stereo not drawn) [Compound 2.009] | 4 (4=60-79%) | 1 (1=0-19%) | 1 (1=0-19%) | 1 (1=0-19%) | 2 (2=20-39%) | 1 (1=0-19%)
15 | CCCCC1=NN(C)C(=O)C(n2c(Cl)c(Cl)c3ccccc32)C1=O (stereo not drawn) [Compound 2.010] | 4 (4=60-79%) | 1 (1=0-19%) | 3 (3=40-59%) | 1 (1=0-19%) | 3 (3=40-59%) | 1 (1=0-19%)
16 | CN1N=C(COCC2CCCCC2)C(=O)C(n2c(Cl)c(Cl)c3ccccc32)C1=O (stereo not drawn) [Compound 2.011] | 4 (4=60-79%) | 1 (1=0-19%) | 2 (2=20-39%) | 1 (1=0-19%) | 5 (5=80-100%) | 1 (1=0-19%)
17 | CN1N=C(COCC(F)(F)F)C(=O)C(n2c(Cl)c(Cl)c3ccccc32)C1=O (stereo not drawn) [Compound 2.012] | 4 (4=60-79%) | 1 (1=0-19%) | 1 (1=0-19%) | 1 (1=0-19%) | 4 (4=60-79%) | 1 (1=0-19%)
18 | CC(C)C1=NN(C)C(=O)C(n2c(Cl)c(Cl)c3ccccc32)C1=O (stereo not drawn) [Compound 2.013] | 4 (4=60-79%) | 1 (1=0-19%) | 3 (3=40-59%) | 1 (1=0-19%) | 2 (2=20-39%) | 1 (1=0-19%)
19 | CC(C)OCC1=NN(C)C(=O)C(n2c(Cl)c(Cl)c3ccccc32)C1=O (stereo not drawn) [Compound 2.014] | 4 (4=60-79%) | 1 (1=0-19%) | 2 (2=20-39%) | 1 (1=0-19%) | 5 (5=80-100%) | 1 (1=0-19%)
20 | COCCOCC1=NN(C)C(=O)C(n2c(Cl)c(Cl)c3ccccc32)C1=O (stereo not drawn) [Compound 2.015] | 4 (4=60-79%) | 1 (1=0-19%) | 2 (2=20-39%) | 1 (1=0-19%) | 5 (5=80-100%) | 1 (1=0-19%)
